Assays:
[1] = Stability of the compound in liver microsomes (human); format: in vitro ADME; conditions: 1 μM compound, 0.5 mg protein/mL
Procedure: (§1) 2.1.1. working solution: 5 μL of test or control compound stock solution (10 mM DMSO solution) was diluted with 495 μL of acetonitrile (ACN) to obtain an intermediate stock solution (100 μM, 99% ACN).
(§2) 2.2.2 Preparation procedure: An appropriate amount of NADPH powder was weighed and diluted with 10 mM MgCl2 buffer (working solution concentration: 10 mM; final reaction system concentration: 1 mM).
(§3) 2.3.2 Preparation procedure: The appropriate concentration of liver microsomal working solution was prepared in 100 mM potassium phosphate buffer;
(§4) Acetonitrile (ACN) solution at 4° C. containing 200 ng/mL of Tolbutamide and 200 ng/ml of labetalol as internal standards 2.5. Operation steps:
(§5) 2.5.2. Diluting liver microsomes with 100 mM potassium phosphate buffer to a concentration of 0.56 mg/mL.
(§6) 2.5.3. Transferring 445 μL of liver microsomal working solution (0.56 mg/mL) to pre-heated incubation plates T60 and NCF60, and then pre-heating the incubation plates T60 and NCF60 for 10 minutes at 37° C. with shaking. Transferring 54 μL of liver microsomes to each well of the blank plate, adding 6 μL of NAPDH coenzyme solution to the blank plate, and finally transferring 180 μL of termination solution to the blank plate.
(§7) 2.5.4 Adding 5 μL of compound working solution (100 μM) to the incubation plates T60 and NCF60 containing liver microsomes and mixing three times.
(§8) 2.5.5. Adding 50 μL of buffer to the NCF60 plate and mixing three times, starting the timer and incubating at 37° C. for 60 min with the plate shaking.
(§9) 2.5.6. Adding 180 μL of quenching solution and 6 μL of NAPDH coenzyme working solution sequentially to quenching plate TO, making sure that the plate was cold to prevent volatilization of the incubation solution.
(§10) 2.5.7. For plate T60, mixing well three times and immediately transferring 54 μL of mixing solution (0-min time point) to quenching plate TO, then adding 44 μL of NAPDH coenzyme working solution to incubation plate T60. Starting the timer:
(§11) 2.5.8. At the 5, 15, 30, 45 and 60 minute time points, adding 180 μL of quenching solution to the quenching plate and transferring 60 μL of reaction solution from the T60 plate to the quenching plate at each time point.
(§12) 2.5.9. For NCF60 plates, mixing well and transferring 60 μL of reaction solution from the NCF60 incubating solution to a quenching plate containing 180 μL of quenching solution at 60th minute.
(§13) 2.5.10. All plates were mixed on a shaker for 10 min and then centrifuged at 4000 rpm at 4° C. for 20 min.
(§14) 2.5.11. Transferring 80 μL of supernatant to 240 μL of HPLC water and mixing on a
(§15) 2.6.1. Calculating t1/2 and Clint (mic) values based on first-order elimination kinetics: […]

[2] = target: Nav1.8 sodium channel (Homo sapiens (Human), UniProt Q9Y5Y9); assay: NaV1.8 blocking activity, manual patch clamp; format: cell-based; conditions: CHO cell line stably expressing Nav1.8
Chain of Nav1.8 sodium channel (Q9Y5Y9 whole entry): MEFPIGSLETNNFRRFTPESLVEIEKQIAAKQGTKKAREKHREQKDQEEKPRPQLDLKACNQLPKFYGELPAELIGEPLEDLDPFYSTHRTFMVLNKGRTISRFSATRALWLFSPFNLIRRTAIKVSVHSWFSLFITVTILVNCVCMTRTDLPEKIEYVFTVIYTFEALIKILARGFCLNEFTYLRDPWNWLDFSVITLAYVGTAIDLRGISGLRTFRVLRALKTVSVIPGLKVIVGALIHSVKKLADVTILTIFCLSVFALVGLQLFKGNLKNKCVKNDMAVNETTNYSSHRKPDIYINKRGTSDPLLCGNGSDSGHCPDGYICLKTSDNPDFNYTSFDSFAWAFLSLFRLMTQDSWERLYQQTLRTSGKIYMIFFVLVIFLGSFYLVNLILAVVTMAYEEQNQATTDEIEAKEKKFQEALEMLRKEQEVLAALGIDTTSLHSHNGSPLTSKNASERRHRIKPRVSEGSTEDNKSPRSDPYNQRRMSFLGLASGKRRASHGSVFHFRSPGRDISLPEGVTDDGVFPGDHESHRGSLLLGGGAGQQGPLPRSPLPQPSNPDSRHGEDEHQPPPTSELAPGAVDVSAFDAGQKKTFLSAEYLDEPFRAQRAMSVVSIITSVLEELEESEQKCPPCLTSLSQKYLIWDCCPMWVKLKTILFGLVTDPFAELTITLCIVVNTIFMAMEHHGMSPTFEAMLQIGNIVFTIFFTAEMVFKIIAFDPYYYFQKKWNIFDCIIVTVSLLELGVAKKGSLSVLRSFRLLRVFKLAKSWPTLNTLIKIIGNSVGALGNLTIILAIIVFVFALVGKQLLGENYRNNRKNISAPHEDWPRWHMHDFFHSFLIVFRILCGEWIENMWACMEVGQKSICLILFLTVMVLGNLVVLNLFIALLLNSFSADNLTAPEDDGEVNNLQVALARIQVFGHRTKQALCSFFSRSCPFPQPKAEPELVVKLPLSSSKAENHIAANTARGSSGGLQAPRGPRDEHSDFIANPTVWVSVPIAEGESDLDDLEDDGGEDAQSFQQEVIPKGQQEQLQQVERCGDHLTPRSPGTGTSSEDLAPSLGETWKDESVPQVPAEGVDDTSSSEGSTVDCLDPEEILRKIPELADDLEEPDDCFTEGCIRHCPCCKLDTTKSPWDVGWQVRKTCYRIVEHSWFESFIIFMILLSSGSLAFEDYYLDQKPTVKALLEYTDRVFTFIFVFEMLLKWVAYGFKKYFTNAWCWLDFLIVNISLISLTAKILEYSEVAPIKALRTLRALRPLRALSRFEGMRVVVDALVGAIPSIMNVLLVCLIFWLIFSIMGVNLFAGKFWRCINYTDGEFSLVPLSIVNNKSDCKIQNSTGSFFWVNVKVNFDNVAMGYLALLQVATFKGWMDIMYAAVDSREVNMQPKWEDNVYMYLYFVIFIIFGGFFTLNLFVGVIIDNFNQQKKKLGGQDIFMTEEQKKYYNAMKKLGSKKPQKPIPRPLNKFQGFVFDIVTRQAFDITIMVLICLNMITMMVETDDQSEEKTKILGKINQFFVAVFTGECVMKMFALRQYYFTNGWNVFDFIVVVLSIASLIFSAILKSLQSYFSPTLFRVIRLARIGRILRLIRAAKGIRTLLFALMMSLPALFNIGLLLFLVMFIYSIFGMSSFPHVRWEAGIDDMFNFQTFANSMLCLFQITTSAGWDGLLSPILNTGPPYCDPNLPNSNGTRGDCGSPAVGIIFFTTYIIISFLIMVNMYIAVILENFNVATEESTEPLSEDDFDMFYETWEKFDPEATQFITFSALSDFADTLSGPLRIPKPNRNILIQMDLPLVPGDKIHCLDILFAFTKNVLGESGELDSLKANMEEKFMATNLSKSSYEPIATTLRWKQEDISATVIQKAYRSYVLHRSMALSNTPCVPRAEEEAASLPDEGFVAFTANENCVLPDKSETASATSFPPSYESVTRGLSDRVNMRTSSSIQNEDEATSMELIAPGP
Procedure: The NaV1.8 blocking activity was determined by using a manual patch clamp technique to detect the effect of the subject on the channel currents of stably overexpressed Nav1.8.
CHO cell line stably expressing the Nav1.8 sodium channel was used for the experiments, gene information: sodium channel, voltage-gated, type 8, alpha (SCN10A), cDNA strictly similar to GenBank accession number: NM 006514.
Cells were cultured in HAM'S/F-12 medium containing 10% foetal bovine serum and 10 μg/mL Blasticidin, 200 μg/mL Hygromycin B, and 100 μg/mL Zeocin at 37° C., 5% CO2. For expansion or maintenance cultures, cells were treated with 0.25%-Trypsin-EDTA, washed and centrifuged, and then inoculated in 6-cm cell culture dishes with 2.5×10^5lls per cell culture dish (final volume: 5 mL).
Prior to the patch clamp detection, cells were separated with 0.25%-Trypsin-EDTA and 6.5×10^3 cells were spread onto coverslips and incubated (final volume: 500 μL) in 24-well plates for 18 hours, then the test was performed.
50 mM CsCl, 10 mM NaCl, 10 mM HEPES, 60 mM CsF, 20 mM EGTA, and pH was adjusted to 7.2 with CsOH. • Instrument information is provided in Table 2 below:
Prior to Nav1.8 channel current testing, a blank control solution (DMSO) was diluted into 10 ml of extracellular fluid as the working solution. Positive controls and subjects were first diluted with different doses of DMSO depending on the final concentration before being diluted as working solution using extracellular fluid. 100 nM TTX was added to each working solution to block the TTX-S current. The working solution was sonicated for 20 min before performing the patch clamp test detection.
Patch clamp manipulation: firstly, the capillary glass tube was drawn into a recording electrode using a microelectrode puller, then the electrode filled with intracellular fluid was loaded into the microelectrode holder, and the microelectrode manipulator was manoeuvred under an inverted microscope to immerse the electrode into the extracellular fluid and record the electrode resistance (Rpip). The electrode was then slowly contacted to the cell surface and negative pressure suction was given to form a GQ2 seal. At this time, fast capacitance compensation was performed and negative pressure was continually applied to suction through the cell membrane to form a whole-cell recording pattern. Finally, slow capacitance compensation was performed and experimental parameters such as series resistance (Rs) were recorded. No leakage compensation was given.
Drug administration was initiated when the Nav1.8 current was stabilized for whole-cell recordings, and the next concentration was detected after each drug concentration had acted for approximately 5 min (or until the current was stable). Cell-lined coverslips were placed in the recording bath under an inverted microscope, and the blank control external solution as well as the working solution of the compound to be tested flowed sequentially from low to high concentrations through the recording bath by using gravitational perfusion and thus acted on the cells, and a peristaltic pump was used to exchange fluids during the recording. The current detected by each cell in the compound-free external fluid served as its own control. Each concentration was repeated independently 2-3 times. All electrophysiological experiments were performed at room temperature.
The voltage stimulation scheme for whole-cell patch-clamp recording of Nav1.8 currents was as follows: when a whole-cell seal was formed, the voltage was clamped at −120 mV. The resting state recording of sodium currents was performed by maintaining the voltage for 5s and then depolarizing it to 0 mV, and then administering a depolarizing pulse (TP1) to 0 m V for 50 ms for detecting the resting state sodium currents. For half-inactivated state recording, the voltage was first stepped at different voltages and maintained for 5s and then a depolarizing pulse was given to 0 mV to detect the Vhalf. […]

[3] = Stability of the compound in liver microsomes (mouse); format: in vitro ADME, CD-1 mouse; conditions: 1 μM compound, 0.5 mg protein/mL
Procedure: as §1, §2, §3, §4, §5, §6, §7, §8, §9, §10, §11, §12, §13, §14, §15

[4] = Stability of the compound in liver microsomes (rat); format: in vitro ADME, SD rat; conditions: 1 μM compound, 0.5 mg protein/mL
Procedure: as §1, §2, §3, §4, §5, §6, §7, §8, §9, §10, §11, §12, §13, §14, §15

[5] = target: CYP2D6 (Homo sapiens (Human), UniProt P10635); assay: Human liver microsomal CYP inhibition test, CYP2D6; format: in vitro ADME; conditions: human liver microsomes 0.2 mg/mL; substrate Dextromethorphan
Chain of CYP2D6 (P10635 whole entry): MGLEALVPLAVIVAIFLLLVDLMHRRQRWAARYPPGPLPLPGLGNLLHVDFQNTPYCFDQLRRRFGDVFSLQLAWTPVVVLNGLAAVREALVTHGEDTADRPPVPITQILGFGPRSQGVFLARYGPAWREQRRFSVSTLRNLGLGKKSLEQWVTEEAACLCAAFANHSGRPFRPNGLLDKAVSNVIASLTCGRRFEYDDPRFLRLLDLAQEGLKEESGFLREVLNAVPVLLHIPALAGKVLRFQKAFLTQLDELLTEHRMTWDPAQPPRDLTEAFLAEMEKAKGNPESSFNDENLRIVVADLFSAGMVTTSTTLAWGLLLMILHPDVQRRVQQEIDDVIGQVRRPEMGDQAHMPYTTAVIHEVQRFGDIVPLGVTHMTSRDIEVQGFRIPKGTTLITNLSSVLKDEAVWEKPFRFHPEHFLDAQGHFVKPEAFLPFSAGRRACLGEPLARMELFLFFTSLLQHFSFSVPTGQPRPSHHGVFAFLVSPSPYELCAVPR
Procedure: (§16) 3.1 Buffer solutions: (1) potassium phosphate 100 mM; (2) magnesium chloride, 33 mM;
(§17) 3.2.3 Reservoir for compounds to be tested: Dissolving the compounds to be tested in DMSO to form a 10 mM DMSO solution.
(§18) 3.4.1 Preparation of human liver microsomal working solution (1.27×) (final concentration: 0.2 mg/mL)
(§19) 3.5.3 Adding 20 μL of substrate solution to the appropriate wells and 20 μL of potassium phosphate buffer to the blank wells;
(§20) 3.5.4 Adding 2 μL of different concentrations of target compounds (final concentrations from 0.05 μM to 50 μM, 7 concentrations in total) or standard inhibitors to each well, with 2 μL of methanol solution in the non-inhibitor and blank wells;
(§21) 3.5.5 Adding 1.012 mL of liver microsomes to 78.988 mL of potassium phosphate buffer, then adding 158 μL of liver microsomes solution to all wells; preheating the well plate for 10 minutes in a 37° C. water bath;
(§22) 3.5.6 Weighing 129.1 mg NADPH (purchased from SyncoZymes Co. Ltd.) and adding to 15.0 mL of 33 Mm MgCl2 solution to give a 10 mM concentration, adding 20 μL to each well;
(§23) 3.5.7 Mixing and incubating the well plate in a 37° C. water bath for 10 minutes, then adding 400 μL of cold termination solution at the appropriate time point;
(§24) 3.5.8 Centrifuging the sample at 4000 rpm for 20 minutes to precipitate the protein. Transferring 200 μL of supernatant to 100 μL of HPLC water and shaking for 10 minutes. The samples were analyzed by LC/MS/MS;
(§25) Percentage inhibition was plotted for blank control and different concentrations of target compounds by using XL fitting or SigmaPlot and the data were analyzed by non-linear regression. IC50 values were determined by using either 3-parameter or 4-parameter logistic equations.

[6] = target: CYP1A2 (Homo sapiens (Human), UniProt P05177); assay: Human liver microsomal CYP inhibition test, CYP1A2; format: in vitro ADME; conditions: microsomes
Chain of CYP1A2 (P05177 whole entry): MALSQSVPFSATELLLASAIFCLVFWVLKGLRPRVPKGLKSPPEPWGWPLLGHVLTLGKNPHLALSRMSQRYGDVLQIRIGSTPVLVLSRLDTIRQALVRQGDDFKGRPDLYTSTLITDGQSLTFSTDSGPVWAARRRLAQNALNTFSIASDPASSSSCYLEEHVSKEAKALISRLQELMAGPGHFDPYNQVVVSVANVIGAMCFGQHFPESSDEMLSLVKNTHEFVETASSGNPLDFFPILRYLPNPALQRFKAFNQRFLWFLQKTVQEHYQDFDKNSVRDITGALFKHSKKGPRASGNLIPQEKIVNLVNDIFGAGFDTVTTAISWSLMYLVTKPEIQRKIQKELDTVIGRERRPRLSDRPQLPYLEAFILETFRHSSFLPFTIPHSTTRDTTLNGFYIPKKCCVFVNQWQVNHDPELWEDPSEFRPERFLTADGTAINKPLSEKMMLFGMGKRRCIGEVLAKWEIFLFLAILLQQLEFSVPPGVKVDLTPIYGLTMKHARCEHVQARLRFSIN
Procedure: as §16, §17, §18, §19, §20, §21, §22, §23, §24, §25

[7] = target: CYP2C9 (Homo sapiens (Human), UniProt P11712); assay: Human liver microsomal CYP inhibition test, CYP2C9; format: in vitro ADME; conditions: human liver microsomes 0.2 mg/mL; substrate Diclofenac
Chain of CYP2C9 (P11712 whole entry): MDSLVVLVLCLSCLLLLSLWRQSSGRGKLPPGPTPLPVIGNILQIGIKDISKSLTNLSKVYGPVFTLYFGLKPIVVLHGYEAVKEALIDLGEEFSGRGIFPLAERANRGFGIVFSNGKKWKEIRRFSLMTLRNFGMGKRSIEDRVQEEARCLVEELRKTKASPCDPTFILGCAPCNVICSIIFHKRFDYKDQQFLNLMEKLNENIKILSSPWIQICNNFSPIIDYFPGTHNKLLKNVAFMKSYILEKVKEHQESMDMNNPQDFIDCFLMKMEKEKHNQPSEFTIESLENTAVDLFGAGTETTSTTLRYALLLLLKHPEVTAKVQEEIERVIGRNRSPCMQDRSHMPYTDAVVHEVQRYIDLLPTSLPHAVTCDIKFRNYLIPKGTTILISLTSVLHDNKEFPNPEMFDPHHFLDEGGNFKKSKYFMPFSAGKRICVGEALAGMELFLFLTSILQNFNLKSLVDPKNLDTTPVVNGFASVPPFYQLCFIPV
Procedure: as §16, §17, §18, §19, §20, §21, §22, §23, §24, §25

[8] = target: CYP2C19 (Homo sapiens (Human), UniProt P33261); assay: Human liver microsomal CYP inhibition test, CYP2C19; format: in vitro ADME; conditions: human liver microsomes 0.2 mg/mL; substrate S-mephenytoin
Chain of CYP2C19 (P33261 whole entry): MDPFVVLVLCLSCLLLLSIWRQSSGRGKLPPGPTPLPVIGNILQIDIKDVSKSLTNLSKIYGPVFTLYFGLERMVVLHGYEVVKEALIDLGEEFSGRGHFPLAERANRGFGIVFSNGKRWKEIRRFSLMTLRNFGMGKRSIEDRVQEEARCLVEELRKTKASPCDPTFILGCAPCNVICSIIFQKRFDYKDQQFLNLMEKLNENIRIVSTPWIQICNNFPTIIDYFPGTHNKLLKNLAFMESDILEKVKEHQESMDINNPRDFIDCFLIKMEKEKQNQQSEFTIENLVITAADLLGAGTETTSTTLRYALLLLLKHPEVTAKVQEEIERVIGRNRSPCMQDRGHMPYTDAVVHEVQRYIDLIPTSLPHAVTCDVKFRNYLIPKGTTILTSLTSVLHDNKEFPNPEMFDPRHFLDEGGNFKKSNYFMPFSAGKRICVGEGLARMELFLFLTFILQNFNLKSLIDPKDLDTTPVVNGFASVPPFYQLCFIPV
Procedure: as §16, §17, §19, §20, §21, §22, §23, §24, §25

[9] = target: CYP3A-M (Homo sapiens, UniProt P08684); assay: Human liver microsomal CYP inhibition test, CYP3A-M (midazolam); format: in vitro ADME; conditions: human liver microsomes 0.2 mg/mL; substrate Midazolam
Chain of CYP3A-M (P08684 2-503 limits assumed): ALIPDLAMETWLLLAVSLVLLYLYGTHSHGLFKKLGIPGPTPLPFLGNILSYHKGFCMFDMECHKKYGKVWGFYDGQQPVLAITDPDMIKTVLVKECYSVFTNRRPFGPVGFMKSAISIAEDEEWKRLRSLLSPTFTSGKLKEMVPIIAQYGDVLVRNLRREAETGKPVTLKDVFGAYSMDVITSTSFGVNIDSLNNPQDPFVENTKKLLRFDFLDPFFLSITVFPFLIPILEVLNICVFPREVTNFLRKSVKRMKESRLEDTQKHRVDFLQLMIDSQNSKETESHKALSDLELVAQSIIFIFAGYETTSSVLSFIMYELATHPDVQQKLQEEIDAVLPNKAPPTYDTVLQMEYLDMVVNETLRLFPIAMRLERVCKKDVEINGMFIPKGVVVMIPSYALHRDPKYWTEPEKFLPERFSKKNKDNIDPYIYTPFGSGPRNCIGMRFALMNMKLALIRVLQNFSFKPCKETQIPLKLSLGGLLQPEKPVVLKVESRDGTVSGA
Procedure: as §16, §17, §18, §19, §20, §21, §22, §23, §24, §25

## COc1c([C@H]2[C@H](C(=O)Nc3ccnc(C(N)=O)c3)N[C@@](C)(C(F)(F)F)[C@H]2C)ccc(F)c1F [Compound 1, 4-((2R,3S,4S,5R)-3-(3,4-difluoro-2-methoxyphenyl)-4,5-dimethyl-5-(trifluoromethyl)pyrrolidine-2-carboxamido)pyridine amide]
[1]; 37° C.
  Human liver microsomes T½: 80.6 min
[1]; T = 60 min
  Human liver microsomes Residual (T = 60 min): 58.4%
[2]
  Blocking rate(%) @10 nM: 97.98%
  IC50: 0.0013 µM
[3]; 37° C.
  Mouse liver microsomes T½: 41.9 min
[3]; T = 60 min
  Mouse liver microsomes Residual (T = 60 min): 37.1%
[4]; 37° C.
  Rat liver microsomes T½: 18.9 min
[4]; T = 60 min
  Rat liver microsomes Residual (T = 60 min): 11.1%

## COc1c([C@H]2[C@H](C(=O)Nc3ccc(F)c(C(=N)NO)c3)N[C@@](C)(C(F)(F)F)[C@H]2C)ccc(F)c1F.Cl [Compound 10, (2R,3S,4S,5R)-3-(3,4-difluoro-2-methoxyphenyl)-aza-(4-fluoro-3-(aza-hydroxycarbamimidoyl)phenyl)-4,5-dimethyl-5-(trifluoromethyl) pyrrolidine-2-carboxamide hydrochloride]
[5]
  IC50: > 50 µM
[2]; 3 nM
  Blocking rate (%) @3 nM: 95.18%
[2]
  Blocking rate(%) @10 nM: 99.13%
[6]
  IC50: > 50 µM
[7]
  IC50: > 50 µM
[8]
  IC50: 3.05 µM
[9]
  IC50: 39.3 µM
